Experimental data from the NIST ThermoML archive (doi:10.1021/je900124n).
Where “and” joins values, the source holds several entries; their conditions need not be identical. Identical values can stand only once.

Details: Fluid (supercritical or subcritical phases), Buoyancy - hydrostatic balance with magnetic suspension - two sinkers

CCC [propane]
Details	mass density
400 K, 11790 kPa	357.33 kg/m3
400 K, 11791 kPa	357.335 kg/m3 [middle of 4 runs]
400 K, 15926 kPa	390.231 kg/m3 [middle of 6 runs]
400 K, 15927 kPa	390.233 kg/m3
400 K, 17448 kPa	398.971 kg/m3
400 K, 17449 kPa	398.975 kg/m3
400 K, 17450 kPa	398.984 kg/m3 and 398.981 kg/m3 and 398.978 kg/m3
400 K, 29918 kPa	445.478 kg/m3
400 K, 29922 kPa	445.491 kg/m3
400 K, 29927 kPa	445.504 kg/m3
400 K, 29932 kPa	445.516 kg/m3
400 K, 29938 kPa	445.533 kg/m3
400 K, 35836 kPa	460.067 kg/m3
400 K, 35844 kPa	460.086 kg/m3
400 K, 35852 kPa	460.105 kg/m3
400 K, 35860 kPa	460.123 kg/m3
400 K, 35868 kPa	460.142 kg/m3
400.01 K, 3901.8 kPa	73.2154 kg/m3
400.01 K, 3902 kPa	73.2198 kg/m3
400.01 K, 10112 kPa	336.233 kg/m3 and 336.235 kg/m3 and 336.236 kg/m3
420 K, 352.46 kPa	4.5346 kg/m3 and 4.5345 kg/m3 and 4.5347 kg/m3
420 K, 352.47 kPa	4.5348 kg/m3
420 K, 629.66 kPa	8.229 kg/m3
420 K, 629.67 kPa	8.2291 kg/m3
420 K, 990.94 kPa	13.2257 kg/m3
420 K, 991.11 kPa	13.2302 kg/m3
420 K, 992.11 kPa	13.2437 kg/m3
420 K, 993.37 kPa	13.2618 kg/m3
420 K, 994.27 kPa	13.2745 kg/m3
420 K, 1638.8 kPa	22.7735 kg/m3 and 22.7726 kg/m3
420 K, 1639 kPa	22.7748 kg/m3
420 K, 1639.4 kPa	22.7815 kg/m3 and 22.7817 kg/m3
420 K, 2549.6 kPa	37.6977 kg/m3
420 K, 2549.8 kPa	37.6995 kg/m3 and 37.7007 kg/m3 and 37.7006 kg/m3
420 K, 3591.6 kPa	57.6483 kg/m3
420 K, 3591.8 kPa	57.649 kg/m3
420 K, 3592 kPa	57.6554 kg/m3 and 57.6545 kg/m3
420 K, 3592.3 kPa	57.6606 kg/m3
420 K, 4243.9 kPa	72.25 kg/m3
420 K, 4244 kPa	72.2514 kg/m3
420 K, 5253.6 kPa	99.376 kg/m3 and 99.3762 kg/m3
420 K, 5253.7 kPa	99.3774 kg/m3 and 99.3766 kg/m3 and 99.3783 kg/m3
420 K, 6605.8 kPa	147.752 kg/m3
420 K, 6605.9 kPa	147.756 kg/m3 and 147.757 kg/m3
420 K, 6606 kPa	147.761 kg/m3 and 147.757 kg/m3
420 K, 6612.9 kPa	148.072 kg/m3
420 K, 6613 kPa	148.069 kg/m3
420 K, 6613.1 kPa	148.07 kg/m3 and 148.073 kg/m3
420 K, 6613.2 kPa	148.071 kg/m3
420 K, 6780.5 kPa	155.128 kg/m3 and 155.129 kg/m3
420 K, 6780.6 kPa	155.129 kg/m3 and 155.128 kg/m3
420 K, 7709.3 kPa	196.595 kg/m3
420 K, 7709.5 kPa	196.603 kg/m3
420 K, 7709.6 kPa	196.603 kg/m3
420 K, 7709.7 kPa	196.608 kg/m3 and 196.605 kg/m3 and 196.607 kg/m3
420 K, 7709.8 kPa	196.607 kg/m3
420 K, 7709.9 kPa	196.61 kg/m3
420 K, 8228.3 kPa	219.041 kg/m3
420 K, 8228.4 kPa	219.041 kg/m3 and 219.043 kg/m3
420 K, 8228.5 kPa	219.044 kg/m3 and 219.042 kg/m3 and 219.043 kg/m3
420 K, 8228.6 kPa	219.042 kg/m3 and 219.043 kg/m3
420 K, 8848 kPa	242.768 kg/m3 and 242.766 kg/m3 and 242.77 kg/m3
420 K, 8848.1 kPa	242.767 kg/m3
420 K, 8848.2 kPa	242.772 kg/m3 and 242.768 kg/m3
420 K, 10126 kPa	279.933 kg/m3 and 279.935 kg/m3
420 K, 10127 kPa	279.933 kg/m3 and 279.936 kg/m3 and 279.935 kg/m3
420 K, 13593 kPa	335.538 kg/m3 [middle of 4 runs]
420 K, 20930 kPa	389.39 kg/m3
420 K, 20931 kPa	389.391 kg/m3 and 389.393 kg/m3
420.01 K, 629.66 kPa	8.2291 kg/m3
420.01 K, 629.67 kPa	8.229 kg/m3
420.01 K, 4243.9 kPa	72.2481 kg/m3 and 72.2491 kg/m3 and 72.2487 kg/m3
420.01 K, 4244 kPa	72.2505 kg/m3 and 72.2532 kg/m3 and 72.2519 kg/m3
420.01 K, 6606 kPa	147.759 kg/m3
420.01 K, 6606.4 kPa	147.771 kg/m3
420.01 K, 13593 kPa	335.538 kg/m3 and 335.537 kg/m3
420.01 K, 20931 kPa	389.392 kg/m3 and 389.394 kg/m3
420.01 K, 20932 kPa	389.393 kg/m3
440 K, 368.32 kPa	4.5138 kg/m3 and 4.514 kg/m3 and 4.5139 kg/m3
440 K, 658.93 kPa	8.1892 kg/m3
440 K, 658.95 kPa	8.1897 kg/m3
440 K, 1032.5 kPa	13.0703 kg/m3 and 13.0712 kg/m3
440 K, 1032.8 kPa	13.0744 kg/m3
440 K, 1733.1 kPa	22.7483 kg/m3
440 K, 1733.2 kPa	22.75 kg/m3 and 22.7499 kg/m3 and 22.7504 kg/m3
440 K, 1733.4 kPa	22.752 kg/m3
440 K, 2721.5 kPa	37.7309 kg/m3
440 K, 2721.7 kPa	37.7344 kg/m3
440 K, 2721.8 kPa	37.7372 kg/m3
440 K, 2721.9 kPa	37.7372 kg/m3
440 K, 2722.1 kPa	37.7402 kg/m3
440 K, 3865 kPa	57.5204 kg/m3
440 K, 3865.3 kPa	57.5255 kg/m3
440 K, 3865.4 kPa	57.5267 kg/m3
440 K, 3865.5 kPa	57.5266 kg/m3
440 K, 3865.7 kPa	57.532 kg/m3
440 K, 4613.1 kPa	72.2413 kg/m3 [middle of 4 runs]
440 K, 5803.9 kPa	99.3306 kg/m3 and 99.3318 kg/m3
440 K, 5804 kPa	99.3333 kg/m3 and 99.3338 kg/m3
440 K, 7526.8 kPa	147.61 kg/m3 and 147.611 kg/m3
440 K, 7535.9 kPa	147.904 kg/m3 and 147.903 kg/m3
440 K, 7536 kPa	147.904 kg/m3
440 K, 7762.5 kPa	154.944 kg/m3
440 K, 7762.6 kPa	154.945 kg/m3 and 154.944 kg/m3
440 K, 9826.6 kPa	218.701 kg/m3 and 218.702 kg/m3 and 218.7 kg/m3
440 K, 9826.7 kPa	218.702 kg/m3 and 218.7 kg/m3 and 218.701 kg/m3
440.01 K, 658.93 kPa	8.1888 kg/m3
440.01 K, 658.95 kPa	8.1894 kg/m3 and 8.1895 kg/m3
440.01 K, 1032.5 kPa	13.0692 kg/m3
440.01 K, 1032.8 kPa	13.0752 kg/m3
440.01 K, 4613.1 kPa	72.2397 kg/m3 and 72.2408 kg/m3 and 72.2337 kg/m3
440.01 K, 7526.8 kPa	147.613 kg/m3 and 147.61 kg/m3 and 147.611 kg/m3
440.01 K, 7526.9 kPa	147.613 kg/m3 and 147.612 kg/m3
460 K, 384.07 kPa	4.4943 kg/m3 [middle of 5 runs]
460 K, 687.74 kPa	8.1494 kg/m3
